Results taken from the NIST ThermoML archive (doi:10.1016/j.tca.2015.08.013).

Tests used:
[1] = refractive index (Na D-line) (dimensionless); settings: 101.33 kPa, Liquid, Standard Abbe refractometry
[2] = relative permittivity at various frequencies (dimensionless); settings: 99 kPa, Liquid, Frequency=2 MHz, Parallel plate capacitor

Cc1ccc(C)o1 [2,5-dimethylfuran]
Settings | refractive index, [1] | relative permittivity, [2]
278.15 K | – | 2.562
280.65 K | – | 2.553
283.15 K | 1.4477 | 2.538
285.65 K | 1.44645 | 2.526
288.15 K | 1.44494 | 2.516
290.65 K | 1.44362 | 2.499
293.15 K | 1.44218 | 2.492
295.65 K | 1.44079 | 2.472
298.15 K | 1.43942 | 2.462
300.65 K | 1.43796 | 2.445
303.15 K | 1.43665 | 2.434
305.65 K | 1.43513 | 2.418
308.15 K | 1.43383 | 2.404
310.65 K | 1.4323 | 2.391
313.15 K | 1.43098 | 2.376
315.65 K | 1.42947 | 2.364
318.15 K | 1.42815 | 2.349
320.65 K | 1.42664 | 2.337
323.15 K | 1.42525 | 2.321
325.65 K | 1.42381 | 2.31
328.15 K | 1.42239 | 2.292
330.65 K | 1.42098 | 2.283
333.15 K | 1.41948 | 2.272
335.65 K | 1.41815 | 2.256
338.15 K | 1.41657 | 2.245

Cc1ccco1 [2-methylfuran]
Settings | refractive index, [1] | relative permittivity, [2]
278.15 K | – | 2.976
280.65 K | – | 2.967
283.15 K | 1.43942 | 2.944
285.65 K | 1.43794 | 2.933
288.15 K | 1.43644 | 2.911
290.65 K | 1.43495 | 2.893
293.15 K | 1.43344 | 2.874
295.65 K | 1.43194 | 2.854
298.15 K | 1.43044 | 2.84
300.65 K | 1.42893 | 2.814
303.15 K | 1.42742 | 2.8
305.65 K | 1.4259 | 2.775
308.15 K | 1.4244 | 2.76
310.65 K | 1.42289 | 2.735
313.15 K | 1.42138 | 2.72
315.65 K | 1.41984 | 2.696
318.15 K | 1.41831 | 2.678
320.65 K | 1.41675 | 2.656
323.15 K | 1.41521 | 2.636
325.65 K | 1.41366 | 2.617
328.15 K | 1.41212 | 2.596
330.65 K | 1.41059 | 2.577
333.15 K | 1.40907 | 2.556
335.65 K | 1.40747 | 2.538
338.15 K | 1.40589 | 2.518

c1ccoc1 [furan]
Settings | refractive index, [1] | relative permittivity, [2]
278.15 K | – | 3.124
280.65 K | – | 3.094
283.15 K | 1.42784 | 3.068
285.65 K | 1.42625 | 3.036
288.15 K | 1.42463 | 3.009
290.65 K | 1.42303 | 2.988
293.15 K | 1.42141 | 2.958
295.65 K | 1.41979 | 2.934
298.15 K | 1.41814 | 2.913
300.65 K | 1.4165 | 2.892
303.15 K | 1.41485 | 2.865
